Data from PMC8282797, “Strictly regulated agonist-dependent activation of AMPA-R is the key characteristic of TAK-653 for robust synaptic responses and cognitive improvement” (Scientific Reports, 2021).
Like-named read-outs stand apart in the source and are kept apart here.

Legend:
[1] = system: naïve rats; experiment: Novel object recognition (NOR) test; type: in vivo, rat; details: for NORT (effective doses): summary
Protocol: NOR tests were performed using male Long-Evans rats at 6 weeks old as previously described, with some modifications. On day 1, rats were allowed to habituate to the empty test box (a gray-colored polyvinyl chloride box (40 × 40 × 50 cm)) for 10 min individually. Testing comprised two 3-min trials called the acquisition trial and the retention trial that were separated by 48 h inter-trial intervals (ITIs). On day 2, in the acquisition trial, rats were allowed to explore two identical objects (A1 and A2) for 3 min. On day 4, in the retention trial, rats were again allowed to explore a familiar object (A3) and a novel object (B) for 3 min. The object exploration was defined as rats' licking, sniffing or touching the object with forelimbs while sniffing. TAK-653 or AMPA was orally or intraperitoneally, respectively, 2 h or 0.5 h prior to the acquisition and the retention trials. The NDI was calculated using the following equation: novel object interaction/total interaction × 100 (%).

[2] = system: AMPA-R; experiment: Whole-cell patch clamp recording using rat primary hippocampal neurons; type: cell-based; parameters: key to Single effect on AMPA-R currents: -: No effect or slight effect; +: Potent; ++: Very potent; details: for Single effect on AMPA-R currents: summary grade
Protocol: Whole-cell patch clamp recording using primary neurons between 11 and 20 days in vitro was performed as previously described. Patch electrodes with tip resistances ranging from 3 to 5 MΩ were filled with an intracellular solution containing: 135 mM CsCl, 1 mM MgCl2, 10 mM HEPES, 10 mM EGTA, 4 mM MgATP, and 0.3 mM Na2GTP, adjusted to pH7.3 with CsOH (osmolality 275–295 mosm/L). The extracellular solution contained: 140 mM NaCl, 4 mM KCl, 2 mM CaCl2, 1 mM MgCl2, 10 mM HEPES, 5 mM NaHCO3, 10 mM D( +)-glucose, and 0.001 mM TTX, adjusted to pH7.4 with NaOH (osmolality 300–315 mosm/L). All experiments were carried out at room temperature. Neurons were voltage-clamped at − 80 mV. Steady-state inward currents were evoked by the application of AMPA and AMPA potentiator via Y-tube perfusion system. Signals were recorded using a Multiclamp 700B amplifier (Molecular Devices, LLC, Orleans Drive Sunnyvale, CA), digitized using a Digidata 1440A interface board, filtered between 2 kHz, sampled at 10 kHz, and analyzed with pClamp10 software. Details are described in the Supplementary Information.
Whole-cell patch clamp technique was used for recording current from cultured rat hippocampal neurons between 11-20 days in vitro. Patch electrodes with tip resistances ranging from 3 to 5 MΩ were filled with an intracellular solution containing: 135 mM CsCl, 1 mM MgCl2, 10 mM HEPES, 10 mM EGTA, 4 mM Mg-ATP, 0.3 mM Na2-GTP, adjusted to pH7.3 with CsOH (osmolality 275-295 mosm/L). The extracellular solution contained: 140 mM NaCl, 4 mM KCl, 2 mM CaCl2, 1 mM MgCl2, 10 mM HEPES, 5 mM NaHCO3, 10 mM D(+)-glucose, and 0.001 mM TTX, adjusted to pH7.4 with NaOH (osmolality 300-315 mosm/L). All experiments were carried out at room temperature and performed using an Axopatch-1D amplifier with pCLAMP 9 software (Molecular Devices, LLC, Orleans Drive Sunnyvale, CA), low-pass filtered at 2 kHz, and stored on the computer hard-disk for off-line analysis. Neurons were voltage-clamped at –80mV. Steady-state inward currents were evoked by the application of AMPA and AMPA potentiator via Y-tube perfusion system. AMPA-R potentiator was applied 20 s prior to 10-s AMPA stimulus. The current at all drug concentrations tested was normalized by the steady-state current induced by 1 μM AMPA. In the absence of AMPA, the maximum current during 60-s application of AMPA-R potentiator was normalized by the steady-state current induced by 100 μM AMPA.

[3] = system: MK-801-induced working memory deficit in rats; experiment: Radial arm maze (RAM) test, MK-801-induced working memory deficit; type: in vivo, rat; details: for RAM (effective doses): summary
Protocol: RAM tests were performed using 9-week-old male Long-Evans rats as previously described with a minor modification. Each arm was 50 cm long, 10 cm wide and 40 cm high, and the maze was elevated 50 cm above the floor. Long-Evans rats were food-restricted to 85% of free-feeding body weight throughout the experimental period. Rats were well trained to collect pellets placed on the edge of each arm. The learning criterion for the testing session was defined as 2 errors or fewer for 2 consecutive days. In the testing session, each rat was placed on the maze facing the fixed arm at the start of the trial. The entry of rats into each arm was recorded in sequence until all pellets in the 8 arms were consumed, or 5 min had elapsed. […] Thirty min after dosing of vehicle or MK-801, rats were placed on the maze. Details are described in the Supplementary Information.
The experiment was performed using 9-week-old male Long-Evans rats as described previously (Zajaczkowski et al., 1996) with a minor modification. Each arm was 50 cm long, 10 cm wide and 40 cm high, and the maze was elevated 50 cm above the floor. After being fasted for 24 h, male Long-Evans rats were food-restricted to 85% of free-feeding body weight on the first day of exposure to the maze and throughout the experimental period. The experiment consists of two sessions, training and testing session. In the training session, rats were habituated to the maze and then trained. Reinforcement consisted of 3 food pellets (45 mg each) in the food cup was used. On the first day of habituation to the maze, reinforcements were placed near the entrance and at the mid-point of each arm. Three rats were placed on the maze at one time and allowed to explore and consume the pellets for 8 min. On the second day of habituation, each rat was placed on the maze and allowed 5 min to consume the pellets placed at the mid-point and in the food cup at the end of each arm. From the third day, reinforcement was placed in the food cup at the end of each arm. Rats were well trained to collect pellets placed on the edge of each arm. The learning criterion for the testing session was defined as 2 errors or less for two consecutive days. In the previous day of the testing session, baseline level of performance was qualified to confirm that rats completed collecting all pellets placed in the 8 arms with two errors or less. In the testing session, each rat was placed on the maze facing away from the experimenter and facing the fixed arm at the start of the trial. The entry of rats into each arm was recorded in sequence. Rats were allowed to explore until all pellets in the 8 arms were consumed, or 5 min had elapsed. Entry into an arm previously chosen was counted as an error. […] […] Thirty min after dosing of vehicle or MK-801, rats were placed on the maze. Data were indicated as the mean ± SEM in the testing session.

Compound	Cognitive performance in the NOR test ([1]; 0.3 to 3 mg/kg, i.p.)	NORT (effective doses) [1]	EC50 ([2]; single application, read-out: EC50, increase of AMPA-R-mediated currents) [µM]	Single effect on AMPA-R currents [2]	Working memory in the RAM test ([3]; 0.1 to 3 mg/kg, i.p., MK-801 0.08 mg/kg, s.c.)	RAM (effective doses) [3]	Novelty discrimination index (NDI) ([1]; 0.03, 0.1 and 0.3 mg/kg, p.o., 2 h prior to trials)	Dose improving visual learning and memory in NOR test ([1]; p.o., rats) [mg/kg]	Potency relative to LY451646 in potentiation of AMPA-elicited currents (times less potent) [2] [times]	AMPA-R currents, Agonistic effect @30 μM ([2]; absence of AMPA, % of AMPA (100 μM)-induced steady-state response) [%]	EC50 ([2]; in the presence of 1 μM AMPA, read-out: AMPA-R currents, Potentiation EC50) [µM]	MK-801-induced deficits in RAM task ([3]; 0.1, 0.3, 3 and 10 mg/kg, p.o., MK-801 0.08 mg/kg, s.c.)
Cc1onc(O)c1CC(N)C(=O)O (stereo not drawn) [AMPA, alpha-amino-3-hydroxy-5-methyl-4-isoxazole-propionic acid]	did not improve	No effect	45	++	neither LY451646 at 0.03 to 1 mg/kg, p.o. nor AMPA at 0.1 to 3 mg/kg, i.p. improve	No effect						
CC1=CN2CCS(=O)(=O)N=C2C(c2ccc(OC3CCCCC3)cc2)=N1 [TAK-653, 9-[4-(Cyclohexyloxy)phenyl]-7-methyl-3,4-dihydropyrazino[2,1-c][1,2,4]thiadiazine 2,2-dioxide]		Effective (0.03, 0.1, 0.3)		─		Effective (0.1, 0.3, 3, 10)	significantly improved	≥ 0.03	2.3	1.7	4.4	significantly ameliorated
